Experimental data: patent US20190336519A1, “APPLICATION OF ALBIFLORIN AS INDOLEAMINE 2,3-DIOXYGENASE (IDO) INHIBITOR” (priority 2017, published 2019)
Entries after “also recorded” stand apart in the source; their conditions may differ.

Legend:
[1] = test system: indoleamine 2,3-dioxygenase (IDO); experiment: Western Blot of IDO in hippocampal tissue of chronic unpredictable mild stress (CUMS) rats; assay type: in vivo, rat; settings: for IDO (folds relative to Blank group): CUMS rat hippocampal tissue, Mean±SE
Text: (§1) 1. […] Western Blot was used to detect the effects of albiflorin on IDO and MT1, and the results are found in FIG. 1:
(§2) Effects of albiflorin on indoleamine 2,3-dioxygenase (IDO) and melatonin receptors 1 (MT1) in the rat hippocampal tissue (Mean±SE)

[2] = test system: IL-6, TNF-α, CORT in mouse hippocampal tissue; experiment: ELISA of inflammatory factors and CORT in mouse hippocampal tissue after modeling with LPS; assay type: in vivo; settings: LPS mice, gavage 7 days
Method: (§3) The mice were randomly divided into 6 groups (16 for each group): Blank group, Model group, Fluoxetine hydrochloride (a positive drug) group (10 mg/kg), Low dose of albiflorin group (3.5 mg/kg), Medium dose of albiflorin group (7 mg/kg), and High dose of albiflorin group (14 mg/kg), and administered continuously by gavage for 7 days.
(§4) On the 7th day after administration, LPS was injected intraperitoneally (0.83 mg/kg) for modeling. At 16 h after the injection, the Open Field Test (OFT) was carried out; at 24 h after the injection, the Forced Swimming Test (FST) and Tail Suspension Test (TST) were carried out. Thereafter, the blood was taken by enucleating eyeball, and centrifuged to collect the plasma. After the mice were sacrificed, the hippocampal tissues were taken out and quickly frozen in liquid nitrogen, and stored at −80° C.
(§5) 2. Determination of the effects of albiflorin and the positive drug fluoxetine on the concentrations of inflammatory factors IL-6, TNF-α, and PGE2, and glucocorticoid CORT in the mouse plasma and hippocampal tissue.
(§6) The test data are shown in mean±SE, and originPro8.0 software was used for the statistical analysis of the data and plotting.
An ELISA assay was used to detect the levels of inflammatory factors IL-6, TNF-α and PGE2, and CORT in the mouse hippocampal tissue.

[3] = test system: melatonin receptors 1 (MT1); experiment: Western Blot of MT1 in hippocampal tissue of chronic unpredictable mild stress (CUMS) rats; assay type: in vivo, rat; settings: for MT1 (folds relative to Blank group): CUMS rat hippocampal tissue, Mean±SE
Text: as §1, §2

[4] = test system: IL-6, TNF-α, CORT in mouse plasma; experiment: Levels of inflammatory factors and CORT in mouse plasma after modeling with LPS; assay type: in vivo; settings: LPS mice, gavage 7 days
Method: as §3, §4, §5, §6

[5] = test system: LPS-induced mouse inflammatory depression-like behaviors; experiment: Behavioral tests (Forced Swimming Test, Tail Suspension Test) in mice after modeling with LPS; assay type: in vivo; settings: High dose group (14 mg/kg), gavage 7 days, 24 h after LPS
Method: as §3
1. The behavioral tests: Forced Swimming Test (FST), Tail Suspension Test (TST) and Open Field Test (OFT)
as §4, §6

[6] = test system: tryptophan metabolic pathway (kynurenine-quinolinic acid / serotonin-melatonin); experiment: Tryptophan metabolites in hippocampus of CUMS rats; assay type: in vivo, rat; settings: after 7 days of administration (7 mg/kg, 14 mg/kg)
IDO = target: T1, IDO (Mus musculus, UniProt P28776); experiment: Ratio of kynurenine/tryptophan (IDO activity) in mouse hippocampal tissue after modeling with LPS; assay type: in vivo; settings: LPS mice, gavage 7 days
T1 construct: ratio of kynurenine/tryptophan (KYN/TrP) in the mouse hippocampal tissue; from tissue; host or cells: mouse hippocampal tissue (LPS model)
Method: as §3, §4
3. Determination of the effects of albiflorin and fluoxetine on expression of IDO in the mouse hippocampal tissue.
as §6
The activity of IDO in the hippocampus was expressed through the levels of KYN and TrP and the ratio of KYN/TrP.

[7] = CUMS rat, after 7 days of administration (7 mg/day, 14 mg/day), P<0.01
[8] = medium and high doses (7, 14 mg/kg)

T1 sequence (P28776 whole entry): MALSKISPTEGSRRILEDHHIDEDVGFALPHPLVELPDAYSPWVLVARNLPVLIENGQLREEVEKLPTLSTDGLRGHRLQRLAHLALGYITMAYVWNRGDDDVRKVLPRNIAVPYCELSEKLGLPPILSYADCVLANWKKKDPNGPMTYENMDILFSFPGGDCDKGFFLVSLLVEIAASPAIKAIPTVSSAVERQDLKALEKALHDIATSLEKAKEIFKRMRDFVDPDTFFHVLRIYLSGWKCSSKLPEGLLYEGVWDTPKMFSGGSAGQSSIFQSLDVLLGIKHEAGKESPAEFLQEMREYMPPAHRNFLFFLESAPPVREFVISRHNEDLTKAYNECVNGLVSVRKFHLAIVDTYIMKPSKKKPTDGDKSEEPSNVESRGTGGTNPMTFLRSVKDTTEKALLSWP

C[C@]12C[C@@H](O)[C@@H]3C[C@@]1(O[C@@H]1O[C@H](CO)[C@@H](O)[C@H](O)[C@H]1O)[C@]3(COC(=O)c1ccccc1)C(=O)O2 [Albiflorin, albiflorin]
IDO (folds relative to Blank group) ([1]; 3.5 mg/kg): 1.46 ± 0.014 folds relative to Blank group | IDO (folds relative to Blank group) ([1]; 7 mg/kg): 1.02 ± 0.010 folds relative to Blank group | IDO (folds relative to Blank group) ([1]; 14 mg/kg): 0.80 ± 0.008 folds relative to Blank group | IDO activity in the rat hippocampus [1, 7]: significantly inhibited | level of IL-6 in the mouse hippocampal tissue compared with Model group ([2]; High dose group (14 mg/kg)): significantly decreased | level of TNF-α in the mouse hippocampal tissue compared with Model group ([2]; High dose group (14 mg/kg)): significantly decreased | level of CORT in the hippocampal tissue [2]: substantially decreased | MT1 (folds relative to Blank group) ([3]; 3.5 mg/kg): 1.37 ± 0.013 folds relative to Blank group | MT1 (folds relative to Blank group) ([3]; 7 mg/kg): 1.39 ± 0.0014 folds relative to Blank group | MT1 (folds relative to Blank group) ([3]; 14 mg/kg): 1.39 ± 0.014 folds relative to Blank group | melatonin receptors 1 (MT1) in the rat hippocampus [3, 7]: increased significantly | concentration of CORT in the mouse plasma [4]: substantially decrease | level of IL-6 in the mouse plasma [4, 8]: substantially decreased | level of TNF-α in the mouse plasma [4, 8]: substantially decreased | immobility time in the Tail Suspension Test compared with Model group [5]: significant difference | ratio of kynurenine to tryptophan (KYN/TrP) ([6]; CUMS rat hippocampus): downregulated significantly | level of kynurenine in the rat hippocampus ([6]; CUMS rat, P<0.01): decreased significantly | level of melatonin in the hippocampus ([6]; CUMS rat, P<0.01): increased significantly | level of quinolinic acid in the rat hippocampus ([6]; CUMS rat, P<0.01): decreased significantly | level of serotonin in the hippocampus ([6]; CUMS rat, P<0.01): increased significantly | activity of IDO in the mouse hippocampal tissue (IDO; High dose (14 mg/kg), 14 mg/kg): significantly inhibited; also recorded: decrease | ratio of kynurenine/tryptophan (KYN/TrP) in the mouse hippocampal tissue compared with Model group (IDO; High dose group (14 mg/kg), P<0.05): decreased

CNCCC(Oc1ccc(C(F)(F)F)cc1)c1ccccc1 (stereo not shown) [Fluoxetine, fluoxetine, reference compound]
IDO (folds relative to Blank group) ([1]; 10 mg/kg): 1.29 ± 0.014 folds relative to Blank group | MT1 (folds relative to Blank group) ([3]; 10 mg/kg): 0.50 ± 0.005 folds relative to Blank group | LPS-induced activation/overexpression of IDO in the hippocampus compared with Model group (IDO; 10 mg/kg): failed to be corrected
